Measured values as given in US20220073941A1, “HERBICIDE-RESISTANT CAMELINA SATIVA PLANTS, AND VARIANT CAMELINA ACETOHYDROXYACID SYNTHASE POLYPEPTIDES” (priority 2019, published 2022).
Where “and” joins values, the source holds several entries; their conditions need not be identical. Equal values may be shown once.

Tests used:
Assay in all cases: AHAS product feedback inhibition assay (leucine, isoleucine, valine)
Format in all cases: biochemical, Camelina sativa
[1] = test system: AHAS, enzyme extract of SRS 934; conditions: for % activity (AHAS activity as % of control): control 100 mM pyruvate, no added amino acid, per experiment (Exp. 1-3); for % activity (AHAS activity as % of control), means: means of 3 experiments; for Absorbance at 530 nm (AHAS product feedback inhibition assay, raw data), Avg: average of replicates per experiment; for Absorbance at 530 nm (AHAS product feedback inhibition assay, raw data): individual replicates, experiments 1-3
Procedure: (§1) Briefly, for each of the three comparators, leaf and stem (petiole) material was bulk-harvested at the 3-4 leaf stage from at least 30 plantlets, snap-frozen in liquid nitrogen, and stored at −80° C. The AHAS in vitro assay was conducted according to the method of Singh et al (1988), with modifications by Yu (2010) and Rustgi (2014). For each comparator, 4 grams of frozen material were ground to a fine powder with a mortar and pestle in liquid nitrogen and homogenized in 1 volume of cold extraction buffer containing 100 mM potassium phosphate buffer (pH7.5), 10 mM sodium pyruvate, 5 mM MgCl2, 100 μM flavin adenine dinucleotide (FAD), and 10% glycerol. Four 2-mL microcentrifuge tubes were used for each comparator. The homogenate was centrifuged at 13,000 rpm for 10 min at 4° C., supernatant collected and re-centrifuged for an additional 10 minutes under the same conditions. For each tube, 1 mL of supernatant was pipetted into a new 2-mL microcentrifuge tube, and protein was precipitated by the addition of 1 mL of saturated ammonium sulfate. The solution was mixed well by vortex and allowed to stand on ice for 20 minutes, then centrifuged at 13,000 rpm at 4° C. The protein pellet was resuspended in 300 μL of reaction buffer containing 50 mM potassium phosphate buffer (pH7.5), 100 mM sodium pyruvate, 10 mM MgCl2, 1 mM EDTA, 10 μM FAD, 100 mM NaCl, and 1 mM thiamine pyrophosphate. Tubes of each comparator were combined, mixed well, kept on ice and immediately used in the AHAS activity and feedback inhibition assays.
(§2) Total protein concentration of the crude extract was determined by the Bradford method (Bradford, 1976). All assays were conducted using 300 μg of total protein each.
(§3) The feedback inhibition assay was performed by combining equal amounts of extract and amino acids leucine, isoleucine, or valine, respectively, in concentrations of 0.1 mM, 1 mM, 10 mM and 100 mM, according to Yu et al. (2010). The reaction mixture contained 50 μL enzyme extract and 50 μL 100 mM sodium pyruvate and inhibitor amino acid. The reaction was incubated at 37° C. for 60 minutes, then stopped and acetolactate converted to acetoin with the addition of 20 μL of 6 N H2SO4 and incubated at 60° C. for 15 minutes. A separate background “blank” was included for each sample group by adding 20 μL of 6 N H2SO4 prior to the addition of the enzyme extracts. Then, 95 μL of 0.55% w/v creatine solution and 95 μL of α-naphthol solution (5.5% w/v in 5 N NaOH) were added and the mixture incubated at 60° C. for a further 15 minutes. After cooling to room temperature for 15 minutes, enzyme activity was determined colorimetrically by reading the absorbance at 530 nm. Three independent experiments were conducted. Experiment 1 and 2 each contained 2 technical replicates, while experiment 3 included 3 technical replicates.

[2] = test system: AHAS, enzyme extract of 14CS0851-01-14; conditions: for % activity (AHAS activity as % of control): control 100 mM pyruvate, no added amino acid, per experiment (Exp. 1-3); for % activity (AHAS activity as % of control), means: means of 3 experiments; for Absorbance at 530 nm (AHAS product feedback inhibition assay, raw data), Avg: average of replicates per experiment; for Absorbance at 530 nm (AHAS product feedback inhibition assay, raw data): individual replicates, experiments 1-3; for sensitivity of AHAS to feedback inhibition, comparison of enzyme extracts: extracts of 14CS0851-01-14, SRS 934 and MIDAS™ compared, 1 mM, 10 mM, 100 mM
Procedure: as §1, §2, §3

[3] = test system: AHAS, enzyme extract of MIDAS™; conditions: for % activity (AHAS activity as % of control): control 100 mM pyruvate, no added amino acid, per experiment (Exp. 1-3); for % activity (AHAS activity as % of control), means: means of 3 experiments; for Absorbance at 530 nm (AHAS product feedback inhibition assay, raw data), Avg: average of replicates per experiment; for Absorbance at 530 nm (AHAS product feedback inhibition assay, raw data): individual replicates, experiments 1-3
Procedure: as §1, §2, §3

[4] = 1 mM amino acid final concentration
[5] = 10 mM amino acid final concentration
[6] = 100 mM amino acid final concentration

Structure (SMILES) | % activity (AHAS activity as % of control) ([1]; 1 mM final concentration) | % activity (AHAS activity as % of control), means ([1]; 1 mM final concentration) [%] | % activity (AHAS activity as % of control) ([1]; 10 mM final concentration) | % activity (AHAS activity as % of control), means ([1]; 10 mM final concentration) [%] | % activity (AHAS activity as % of control) ([1]; 100 mM final concentration) | % activity (AHAS activity as % of control), means ([1]; 100 mM final concentration) [%] | % activity (AHAS activity as % of control) ([2]; 1 mM final concentration) | % activity (AHAS activity as % of control), means ([2]; 1 mM final concentration) [%] | % activity (AHAS activity as % of control) ([2]; 10 mM final concentration) | % activity (AHAS activity as % of control), means ([2]; 10 mM final concentration) [%] | % activity (AHAS activity as % of control) ([2]; 100 mM final concentration) | % activity (AHAS activity as % of control), means ([2]; 100 mM final concentration) [%] | % activity (AHAS activity as % of control) ([3]; 1 mM final concentration) | % activity (AHAS activity as % of control), means ([3]; 1 mM final concentration) [%] | % activity (AHAS activity as % of control) ([3]; 10 mM final concentration) | % activity (AHAS activity as % of control), means ([3]; 10 mM final concentration) [%] | % activity (AHAS activity as % of control) ([3]; 100 mM final concentration) | % activity (AHAS activity as % of control), means ([3]; 100 mM final concentration) [%] | Absorbance at 530 nm (AHAS product feedback inhibition assay, raw data), Avg [1, 4] | Absorbance at 530 nm (AHAS product feedback inhibition assay, raw data) [1, 4] | other results
CC(C)C[C@H](N)C(=O)O [Leu] | 51.5% and 83.5% and 45.2% | 60.1 | 45.1% and 70.4% and 43.0% | 52.8 | 37.2% and 59.1% and 40.6% | 45.7 | 48.8% and 63.7% and 57.9% | 56.8 | 41.6% and 58.1% and 39.5% | 46.4 | 34.2% and 52.1% | 40.2 | 50.4% and 63.2% and 45.2% | 52.9 | 39.8% and 58.2% and 39.6% | 45.9 | 33.2% and 53.3% and 38.1% | 41.6 | – | – | –
CC(C)[C@H](N)C(=O)O [Val] | 58.3% and 47.9% and 78.7% | 61.7 | 46.5% and 47.0% and 77.8% | 57.1 | 41.0% and 35.4% and 61.7% | 46.1 | 51.0% and 49.1% and 88.5% | 62.8 | 46.9% and 45.0% and 76.1% | 56.0 | 35.5% and 34.8% and 66.2% | 45.5 | 55.6% and 49.8% and 71.2% | 58.9 | 48.0% and 47.5% and 67.0% | 54.2 | 40.7% and 37.8% and 58.2% | 45.6 | – | – | –
CC[C@H](C)[C@H](N)C(=O)O [isoleucine] | – | – | – | – | – | – | – | – | – | – | – | – | – | – | – | – | – | – | 0.2535 and 0.224 and 0.115 | 0.251 and 0.256 and 0.245 and 0.203 and 0.120 and 0.111 and 0.114 | Absorbance at 530 nm (AHAS product feedback inhibition assay, raw data), Avg [1, 5]: 0.234 and 0.187 and 0.093; Absorbance at 530 nm (AHAS product feedback inhibition assay, raw data) [1, 5]: 0.233 and 0.235 and 0.219 and 0.154 and 0.091 and 0.089 and 0.100; Absorbance at 530 nm (AHAS product feedback inhibition assay, raw data), Avg [1, 6]: 0.186 and 0.156 and 0.069; Absorbance at 530 nm (AHAS product feedback inhibition assay, raw data) [1, 6]: 0.196 and 0.176 and 0.177 and 0.134 and 0.065 and 0.069 and 0.073; Absorbance at 530 nm (AHAS product feedback inhibition assay, raw data), Avg [2, 4]: 0.296 and 0.229 and 0.105; Absorbance at 530 nm (AHAS product feedback inhibition assay, raw data) [2, 4]: 0.305 and 0.287 and 0.238 and 0.220 and 0.106 and 0.104; Absorbance at 530 nm (AHAS product feedback inhibition assay, raw data), Avg [2, 5]: 0.209 and 0.186 and 0.088; Absorbance at 530 nm (AHAS product feedback inhibition assay, raw data) [2, 5]: 0.217 and 0.201 and 0.200 and 0.171 and 0.087 and 0.082 and 0.094; Absorbance at 530 nm (AHAS product feedback inhibition assay, raw data), Avg [2, 6]: 0.182 and 0.145 and 0.061; Absorbance at 530 nm (AHAS product feedback inhibition assay, raw data) [2, 6]: 0.188 and 0.176 and 0.70 and 0.120 and 0.061 and 0.072 and 0.052; sensitivity of AHAS to feedback inhibition, comparison of enzyme extracts [2]: no significant difference; Absorbance at 530 nm (AHAS product feedback inhibition assay, raw data), Avg [3, 4]: 0.327 and 0.238 and 0.141; Absorbance at 530 nm (AHAS product feedback inhibition assay, raw data) [3, 4]: 0.306 and 0.348 and 0.271 and 0.204 and 0.136 and 0.138 and 0.149; Absorbance at 530 nm (AHAS product feedback inhibition assay, raw data), Avg [3, 5]: 0.2675 and 0.192; Absorbance at 530 nm (AHAS product feedback inhibition assay, raw data) [3, 5]: 0.275 and 0.208 and 0.176 and 0.100 and 0.107 and 0.102; Absorbance at 530 nm (AHAS product feedback inhibition assay, raw data), Avg [3, 6]: 0.195 and 0.077; Absorbance at 530 nm (AHAS product feedback inhibition assay, raw data) [3, 6]: 0.194 and 0.176 and 0.149 and 0.080 and 0.075 and 0.078
CC(C)C[C@H](N)C(=O)O [leucine] | – | – | – | – | – | – | – | – | – | – | – | – | – | – | – | – | – | – | 0.204 and 0.192 and 0.089 | 0.2 and 0.208 and 0.225 and 0.158 and 0.097 and 0.085 and 0.086 | Absorbance at 530 nm (AHAS product feedback inhibition assay, raw data), Avg [1, 5]: 0.1785 and 0.162 and 0.085; Absorbance at 530 nm (AHAS product feedback inhibition assay, raw data) [1, 5]: 0.17 and 0.187 and 0.163 and 0.140 and 0.092 and 0.091 and 0.071; Absorbance at 530 nm (AHAS product feedback inhibition assay, raw data), Avg [1, 6]: 0.1475 and 0.136 and 0.080; Absorbance at 530 nm (AHAS product feedback inhibition assay, raw data) [1, 6]: 0.154 and 0.141 and 0.167 and 0.104 and 0.084 and 0.068 and 0.089; Absorbance at 530 nm (AHAS product feedback inhibition assay, raw data), Avg [2, 4]: 0.204 and 0.149 and 0.094; Absorbance at 530 nm (AHAS product feedback inhibition assay, raw data) [2, 4]: 0.214 and 0.194 and 0.162 and 0.136 and 0.079 and 0.099 and 0.105; Absorbance at 530 nm (AHAS product feedback inhibition assay, raw data), Avg [2, 5]: 0.174 and 0.136 and 0.064; Absorbance at 530 nm (AHAS product feedback inhibition assay, raw data) [2, 5]: 0.183 and 0.165 and 0.151 and 0.120 and 0.066 and 0.061 and 0.067; Absorbance at 530 nm (AHAS product feedback inhibition assay, raw data), Avg [2, 6]: 0.122 and 0.056; Absorbance at 530 nm (AHAS product feedback inhibition assay, raw data) [2, 6]: 0.146 and 0.14 and 0.138 and 0.105 and 0.051 and 0.060 and 0.057; sensitivity of AHAS to feedback inhibition, comparison of enzyme extracts [2]: no significant difference; Absorbance at 530 nm (AHAS product feedback inhibition assay, raw data), Avg [3, 4]: 0.2245 and 0.180 and 0.106; Absorbance at 530 nm (AHAS product feedback inhibition assay, raw data) [3, 4]: 0.215 and 0.234 and 0.198 and 0.162 and 0.102 and 0.105 and 0.112; Absorbance at 530 nm (AHAS product feedback inhibition assay, raw data), Avg [3, 5]: 0.1775 and 0.166 and 0.093; Absorbance at 530 nm (AHAS product feedback inhibition assay, raw data) [3, 5]: 0.178 and 0.177 and 0.181 and 0.150 and 0.096 (2×) and 0.088; Absorbance at 530 nm (AHAS product feedback inhibition assay, raw data), Avg [3, 6]: 0.148 and 0.152 and 0.090; Absorbance at 530 nm (AHAS product feedback inhibition assay, raw data) [3, 6]: 0.142 and 0.154 and 0.153 and 0.150 and 0.078 and 0.096 (2×)
